Values quoted from earlier work, collected in article PMC8747035, “Design, Synthesis, and Biological Evaluation of 5,6,7,8-Tetrahydrobenzo[4,5]thieno[2,3-d]pyrimidines as Microtubule Targeting Agents” (Molecules, 2022).

Legend:
MDA-MB-435 cells = details: SRB assay, antiproliferative; read-out: IC50 ± SD in MDA-435 Cells; cited from earlier work
A-10 cells = details: read-out: EC50 for Microtubule Depolymerization in A-10 Cells; cited from earlier work
Bovine brain tubulin = details: read-out: Inhibition of Tubulin Assembly IC50 ± SD; cited from earlier work
tubulin = details: compound at 5 μM; cited from earlier work
HeLa cells = details: read-out: IC50 ± SD in HeLa; cited from earlier work
HeLa WTβIII cells = details: read-out: IC50 ± SD in HeLa WTβ3; cited from earlier work
SK-OV-3 cells = details: read-out: IC50 ± SD in SK-OV-3 Cells; cited from earlier work
SK-OV-3 MDR1-M6/6 cells = details: read-out: IC50 ± SD in SK-OV-3 MDR1-M6/6 Cells; cited from earlier work

SMILES | IC50 (MDA-MB-435 cells) [nM] | EC50 (A-10 cells) [nM] | IC50 (Bovine brain tubulin) [nM] | Inhibition of Colchicine Binding (% inhibition ± SD) (tubulin) [%] | IC50 (HeLa cells) [nM] | IC50 (HeLa WTβIII cells) [nM] | IC50 (SK-OV-3 cells) [nM] | IC50 (SK-OV-3 MDR1-M6/6 cells) [nM]
CSc1ccc(N(C)c2nc(N)nc3[nH]c4ccccc4c23)cc1 [Compound 2] | 89.1 ± 10 | 1100 | 2300 ± 300 | 67.0 ± 5.0 | 118 ± 13 | 78.4 ± 4 | 156 ± 16 | 160 ± 15
COc1ccc(N(C)c2ncnc3[nH]c4ccccc4c23)cc1 [Compound 3] | 130 ± 7.8 | 1200 | 2300 ± 400 | 62.0 ± 4.0 | 142 ± 8.1 | 99.5 ± 12 | 173 ± 8.6 | 224 ± 21
COc1ccc(N(C)c2nc(N)nc3[nH]c4ccccc4c23)cc1 [Compound 1] | 14.7 ± 1.5 | 130 | 1400 ± 7 | 84 ± 0.50 | 21.3 ± 2.2 | 21.4 ± 3.5 | 27.6 ± 1.8 | 
